Data: US20230286930A1, “N -SUBSTITUTED 4-(1,3-ARYLOXAZOLO-2-YL)PHENYL COMPOUNDS FOR THE TREATMENT AND PROPHYLAXIS OF HEPATITIS B VIRUS INFECTION” (Hoffmann-La Roche Inc., priority 2020, published 2023)

Tests used:
HBsAg = experiment: PHH natural infection assay, HBsAg (alphalisa); format: cell-based, HBV; conditions: Hepatitis B virus, read-out: HBsAg IC50
Experimental: (§1) Detailed procedures regarding primary human hepatocyte (PHH) HBV natural infection assay are described as below. One tube of frozen PHH (10 million cells) is thawed in 37° C. water bath and then transferred to 20 mL of PHH thawing medium (Sigma, InVitroGRO HT Medium, Cat. S03319) with gently mixing. The cells were then centrifuged at […] for 5 min, the supernatant was discarded and the tube was refilled with 25 mL of PHH plating medium (Sigma, InVitroGRO CP Medium, Cat. S03317). The tube was shaken very gently to re-suspend all cells, and then 50 μL of cells were transferred to each well 384-well collagen I coated plate with appropriate liquid handling equipment, e.g. Integra VIAFLO384 or Agilent Bravo. The cells were then cultured for 24 hours in a cell incubator. For HBV infection, after PHH attachment on the culture plate, the plating medium was removed and replenished with PHH culture medium containing HBV virus. The PHH culture medium was prepared with Dulbecco's Modified Eagle Medium (DMEM)/F12 (1:1 in volume ratio) containing 10% fetal bovine serum (Gibco, Cat. 10099141), 5 ng/mL human epidermal growth factor (Gibco, Cat.PHG0311L), 20 ng/mL dexamethasone (Sigma, Cat.D4902-100 mg), 250 ng/mL human recombinant insulin (Gibco, Cat.41400045) and 100 U/mL penicillin. HBV virus at 200 genome equivalent (GE) per cell with 4% PEG8000 (Sigma, Cat.P1458) containing culture medium were added to the PHH culture medium for infection. The cells were then cultured for 24 hours in cell incubator. Then the cell culture supernatant was removed. The HBV-infected PHH were cultured with sandwich culture method with PHH culture medium containing 1% DMSO and 0.25 mg/mL matrix gel for 72 hours. The supernatant was then refreshed with PHH culture medium containing different concentrations of testing compounds for two times with 72-hour interval. At the end of treatment, the supernatant was collected for viral markers measurements, including HBsAg, HBeAg, HBV DNA and cytotoxicity. HBsAg and HBeAg were detected using alphalisa method using their specific antibodies. For HBV DNA detection, HBV DNA Quantitative Fluorescence Diagnostic Kit (Sansure Biotech Inc.) was used following the manufacture's protocol. Cytotoxicity was determined using Cell Counting Kit-8 (CCK8, Dojindo Molecular Technologies, Inc.).
(§2) The compounds of the present invention were tested for their capacity to inhibit HBsAg and HBeAg as described herein.

HBeAg = experiment: PHH natural infection assay, HBeAg (alphalisa); format: cell-based, HBV; conditions: Hepatitis B virus, read-out: HBeAg IC50
Experimental: as §1, §2

[1] = PHH natural infection assay, cytotoxicity (Cell Counting Kit-8); format: cell-based; conditions: human
Experimental: as §1

Row | SMILES | IC50 (HBsAg) [µM] | IC50 (HBeAg) [µM] | CC50 at 144 h [1] [µM]
1 | CC(C)(O)C(=O)Nc1ccc(-c2nc3cccc(F)c3o2)cc1 [Example 13, N-[4-(7-fluoro-1,3-benzoxazol-2-yl)phenyl]-2-hydroxy-2-methyl-propanamide] | 0.26 | 0.19 | > 100
2 | CC1(C(=O)Nc2ccc(-c3nc4cccc(F)c4o3)cc2)COC1 [Example 12, N-[4-(7-fluoro-1,3-benzoxazol-2-yl)phenyl]-3-methyl-oxetane-3-carboxamide] | 0.48 | 0.63 | > 100
3 | COc1ccc2nc(-c3ccc(NC(=O)C4CCOC4)cc3)oc2n1 (stereo not drawn) [Example 72, N-[4-(5-methoxyoxazolo[5,4-b]pyridin-2-yl)phenyl]tetrahydrofuran-3-carboxamide] | 2.22 | 2.61 | > 100
4 | O=C(Nc1ccc(-c2nc3ccc(F)c(F)c3o2)cc1)C1CCOC1 (stereo not drawn) [Example 82, N-[4-(6,7-difluoro-1,3-benzoxazol-2-yl)phenyl]tetrahydrofuran-3-carboxamide] | 0.52 | 0.55 | > 100
5 | O=C(Nc1ccc(-c2nc3cccnc3o2)cc1)C1COC1 [Example 68, N-(4-oxazolo[5,4-b]pyridin-2-ylphenyl)oxetane-3-carboxamide] | 4.51 | 4.22 | > 100
6 | CC1(C(=O)Nc2ccc(-c3nc4cccc(F)c4o3)cc2)CCC1 [Example 34, N-[4-(7-fluoro-1,3-benzoxazol-2-yl)phenyl]-1-methyl-cyclobutanecarboxamide] | 1.61 | 1.76 | > 100
7 | O=C(Nc1ccc(-c2nc3c(F)cccc3o2)cc1)c1ncco1 [Example 40, N-[4-(4-fluoro-1,3-benzoxazol-2-yl)phenyl]oxazole-2-carboxamide] | 0.17 | 0.33 | > 100
8 | CC1(C(=O)Nc2ccc(-c3nc4cccnc4o3)cc2)CCOC1 (stereo not drawn) [Example 64, 3-methyl-N-(4-oxazolo[5,4-b]pyridin-2-ylphenyl)tetrahydrofuran-3-carboxamide] | 2.76 | 3.56 | > 100
9 | CC1(C(=O)Nc2ccc(-c3nc4ccc(F)cc4o3)cc2)CCCO1 (stereo not drawn) [Example 5, N-[4-(6-fluoro-1,3-benzoxazol-2-yl)phenyl]-2-methyl-tetrahydrofuran-2-carboxamide] | 1.45 | 1.46 | > 100
10 | O=C(Nc1ccc(-c2nc3c(F)c(F)ccc3o2)cc1)C1CCOC1 (stereo not drawn) [Example 69, N-[4-(4,5-difluoro-1,3-benzoxazol-2-yl)phenyl]tetrahydrofuran-3-carboxamide] | 1.49 | 2.1 | > 100
11 | O=C(Nc1ccc(-c2nc3c(F)cc(F)cc3o2)cc1)C1CCOC1 (stereo not drawn) [Example 84, N-[4-(4,6-difluoro-1,3-benzoxazol-2-yl)phenyl]tetrahydrofuran-3-carboxamide] | 1.4 | 2.01 | > 100
12 | O=C(Nc1ccc(-c2nc3cccnc3o2)cc1)C1CCS(=O)(=O)CC1 [Example 66, N-(4-oxazolo[5,4-b]pyridin-2-ylphenyl)-1,1-dioxo-thiane-4-carboxamide] | 3.9 | 6.11 | > 100
13 | Cc1coc(C(=O)Nc2ccc(-c3nc4ccc(F)c(F)c4o3)cc2)n1 [Example 79, N-[4-(6,7-difluoro-1,3-benzoxazol-2-yl)phenyl]-4-methyl-oxazole-2-carboxamide] | 0.82 | 1.03 | > 100
14 | Cc1nnc(C(=O)Nc2ccc(-c3nc4ccc(F)c(F)c4o3)cc2)o1 [Example 80, N-[4-(6,7-difluoro-1,3-benzoxazol-2-yl)phenyl]-5-methyl-1,3,4-oxadiazole-2-carboxamide] | 1.34 | 2.11 | > 100
15 | O=C(Nc1ccc(-c2nc3cccc(F)c3o2)cc1)C1CCC1 [Example 25, N-[4-(7-fluoro-1,3-benzoxazol-2-yl)phenyl]cyclobutanecarboxamide] | 0.95 | 0.72 | > 100
16 | O=C(Nc1ccc(-c2nc3cccc(F)c3o2)cc1)C12CC(F)(C1)C2 [Example 16, 3-fluoro-N-[4-(7-fluoro-1,3-benzoxazol-2-yl)phenyl]bicyclo[1.1.1]pentane-1-carboxamide] | 0.48 | 0.44 | > 100

Row | SMILES | IC50 (HBsAg) [µM] | IC50 (HBeAg) [µM] | CC50 at 144 h [1] [µM]
17 | CC(O)C(=O)Nc1ccc(-c2nc3cccc(F)c3o2)cc1 (stereo not drawn) [Example 24, N-[4-(7-fluoro-1,3-benzoxazol-2-yl)phenyl]-2-hydroxy-propanamide] | 0.94 | 1.8 | > 100
18 | O=C(Nc1ccc(-c2nc3cccc(F)c3o2)cc1)C1CCOCC1 [Example 28, N-[4-(7-fluoro-1,3-benzoxazol-2-yl)phenyl]tetrahydropyran-4-carboxamide] | 0.96 | 1 | > 100
19 | O=C(Nc1ccc(-c2nc3cccnc3o2)cc1)C1CCS(=O)(=O)C1 (stereo not drawn) [Example 63, N-(4-oxazolo[5,4-b]pyridin-2-ylphenyl)-1,1-dioxo-thiolane-3-carboxamide] | 2.53 | 4.83 | > 100
20 | O=C(Nc1ccc(-c2nc3cc(Cl)ccc3o2)cc1)c1ncco1 [Example 73, N-[4-(5-chloro-1,3-benzoxazol-2-yl)phenyl]oxazole-2-carboxamide] | 1.78 | 2.05 | > 100
21 | O=C(Nc1ccc(-c2nc3cc(Cl)ccc3o2)cc1)C12CC(C1)C2 [Example 76, N-[4-(5-chloro-1,3-benzoxazol-2-yl)phenyl]bicyclo[1.1.1]pentane-1-carboxamide] | 1.59 | 2.11 | > 100
22 | O=C(Nc1ccc(-c2nc3cccnc3o2)cc1)[C@@H]1CCS(=O)(=O)C1 (single isomer, unassigned) [Example 86-b] | 1.95 | 1.87 | > 100
23 | CC(=O)OC1(C(=O)Nc2ccc(-c3nc4cccc(F)c4o3)cc2)CCOCC1 [Example 26, [4-[[4-(7-fluoro-1,3-benzoxazol-2-yl)phenyl]carbamoyl]tetrahydropyran-4-yl] acetate] | 1.08 | 0.84 | 73.5
24 | O=C(Nc1ccc(-c2nc3cccc(F)c3o2)cc1)C1COCCO1 (stereo not drawn) [Example 23, N-[4-(7-fluoro-1,3-benzoxazol-2-yl)phenyl]-1,4-dioxane-2-carboxamide] | 0.65 | 0.52 | > 100
25 | CC1(C(=O)Nc2ccc(-c3nc4cccc(F)c4o3)cc2)CC1 [Example 32, N-[4-(7-fluoro-1,3-benzoxazol-2-yl)phenyl]-1-methyl-cyclopropanecarboxamide] | 1.52 | 1.16 | > 100
26 | O=C(Nc1ccc(-c2nc3ccc(F)cc3o2)cc1)C1CCSCC1 [Example 4, N-[4-(6-fluoro-1,3-benzoxazol-2-yl)phenyl]tetrahydrothiopyran-4-carboxamide] | 1.08 | 0.64 | > 100
27 | O=C(Nc1ccc(-c2nc3cc(F)ccc3o2)cc1)C1CCSCC1 [Example 7, N-[4-(5-fluoro-1,3-benzoxazol-2-yl)phenyl]tetrahydrothiopyran-4-carboxamide] | 3.86 | 5.18 | > 100
28 | CC1(C(=O)Nc2ccc(-c3nc4c(F)cccc4o3)cc2)CC(=O)C1 [Example 56, N-[4-(4-fluoro-1,3-benzoxazol-2-yl)phenyl]-1-methyl-3-oxo-cyclobutanecarboxamide] | 3.39 | 4.3 | > 100
29 | O=C(Nc1ccc(-c2nc3ccc(Cl)cc3o2)cc1)C1CCOC1 (stereo not drawn) [Example 8, N-[4-(6-chloro-1,3-benzoxazol-2-yl)phenyl]tetrahydrofuran-3-carboxamide] | 0.92 | 0.82 | > 100
30 | O=C(Nc1ccc(-c2nc3cccc(F)c3o2)cc1)C1COC1 [Example 29, N-[4-(7-fluoro-1,3-benzoxazol-2-yl)phenyl]oxetane-3-carboxamide] | 1.38 | 1.45 | > 100
31 | Cc1cnc(C(=O)Nc2ccc(-c3nc4c(F)cccc4o3)cc2)o1 [Example 41, N-[4-(4-fluoro-1,3-benzoxazol-2-yl)phenyl]-5-methyl-oxazole-2-carboxamide] | 0.42 | 0.52 | > 100
